Several values for one entry are separate records, joined by “and”; a condition that tells them apart may be missing. Identical values can stand only once. Like-named read-outs stand apart in the source and are kept apart here.
System: formaldehyde dehydrogenase
Type: biochemical, Burkholderia multivorans
[1] = metal ion 1 mM in enzyme reaction solution
[2] = metal ion 5 mM in enzyme reaction solution

[Ba+2].[Cl-].[Cl-] [BaCl2]
Relative activity (%) [1]: 98.55%
Relative activity (%) [2]: 115.1%

[Ca+2].[Cl-].[Cl-] [CaCl2]
Relative activity (%) [1]: 50.67%
Relative activity (%) [2]: 75.96%

[Cl-].[K+] [KCl]
Relative activity (%) [1]: 104.0%
Relative activity (%) [2]: 94.49%

[Cl][Mn][Cl] [MnCl2]
Relative activity (%) [1]: 62.32%
Relative activity (%) [2]: 111.6%

[Cl-].[Cl-].[Zn+2] [ZnCl2]
Relative activity (%) [1]: 63.99%
Relative activity (%) [2]: 192.2%

[Cl-].[Cl-].[Co+2] [CoCl2]
Relative activity (%): 58.39% and 72.60%

[Cl-].[Cl-].[Mg+2] [MgCl2]
enzyme activity in the presence of metal ion versus without it (5 frill Mg^2+): 2.7 times
Relative activity (%) [1]: 147.8%
Relative activity (%) [2]: 269.6%

O=S(=O)([O-])[O-].[Cu+2] [CuSO4]
Relative activity (%) [1]: 124.3%
Relative activity (%) [2]: 91.30%

Source: patent US9963684B2 (priority 2014, dated 2018)
